According to PMC6440464 (PeerJ, 2019):
Read-outs that look alike come from different tables or passages of the source.

Assay: Pharmacokinetics study after separate oral administration in rats (HPLC-MS of plasma)
Assay type: in vivo, Sprague-Dawley rats
Details: male, Sprague-Dawley, rat, plasma, 50 mg/kg; for Tmax / AUC(0-t) / CL/F / Cmax / MRT last / half-life: po, rat plasma; for Tmax: read-out: Tmax (converted); for CL/F: read-out: CLz/F; for Cmax: read-out: Cmax; for half-life: read-out: t1/2z
Description: A total of 15 SPF Sprague-Dawley rats (SD, male, 190–210 g) were provided by Sino-British Sippr/BK Lab Animal Company Ltd. (Shanghai, China). The rats were kept in standard conditions (22–26 °C; 40–60% relative humidity; 12 h light/dark cycle). Throughout the rearing period, the animals had access to food and water ad libitum. Animal experiments were conducted in accordance with the standard ethical guidelines of the Laboratory Animal Management Committee of Jiangsu Province (SYXK (SU) 2016-0011).
Following 1 week of adaptation, the rats were fasted for about 12 h before dosing, with free access to water. […] After administration of the first dose, blood samples were taken from the retro-orbital vein at 0, 5, 15, 30, 60, 90, 120, 180, 240, 360, 480, and 1,440 min and collected in heparinized tubes. The samples were centrifuged at 3,500 rpm for 10 min at 4 °C and the plasma was stored at −80 °C until analysis.
An Agilent 1,200 series HPLC system (Agilent Technologies, Waldbronn, Germany) equipped with a quaternary pump on-line degasser, auto-sampler and column oven, and an SL G1946D quadruple mass spectrometer (Agilent Technologies, Santa Clara, CA, USA) equipped with an electrospray ionization (ESI) source, were used for separation and detection. Data were acquired and analyzed using Agilent ChemStation Software Version A.01.00 (Agilent Technologies, Santa Clara, CA, USA).
The separation was carried out with an Amethyst C18-H column (150 × 4.6 mm, 5 μm, Sepax Technologies, Newark, DE, USA) with a guard column SB-C18 (10 × 4.6 mm, 5 μm, Phenomenex Technologies, Torrance, USA) at a constant temperature of 25 °C.
The mass spectra were acquired using ESI interfaced to a single quadrupole mass spectrometer. The ionization conditions were as follows: drying gas (N2) flow rate of 11 L/min, drying gas temperature of 350 °C, nebulizing gas (N2) pressure of 35 psi, capillary voltage of 3,500 V, quad temperature of 100 °C, and fragment voltage of 110 V. A series of m/z were monitored using a timed program according to the retention times and characteristic ions for the corresponding HPLC-MS peak obtained by scanning from m/z 100–1,000 in the standard sample.
Briefly, an aliquot of plasma sample (100 μL) was spiked with 5% formic acid (10 μL) in centrifuge tube. Subsequently, hydrochloric acid (2 mol/L, 10 μL) and IS solution (960.00 ng/mL, 20 μL) were added. Then ethyl acetate/n-butyl alcohol (1:1 v/v; 1,000 μL) was used to extract the components. The samples were then homogenized by vortex mixing and centrifuged for 10 min at 14,000 rpm. After centrifugation, 800 μL of supernatant was transferred to another centrifuge tube and the sample was evaporated to dryness. The residues were dissolved in 100 μL of methanol and centrifuged for 10 min at 12,000 rpm. 50 μL of the supernatant was transferred to the vial and an aliquot of 5 μL was injected into the HPLC-MS system for analysis.
DAS 2.0 (Chinese Pharmacological Association, Shanghai, China) was used to calculate the pharmacokinetic parameters using the non-compartment model, including the area under curve (AUC), mean residence time (MRT), half-life ( t1/2z), clearance rate (CL), maximum plasma concentration (Cmax), and time (Tmax). All results are expressed as mean ± standard deviation (SD). One way analysis of variance followed by […] was used for comparison of different groups using Graph pad prism 5 software. A p-value of <0.05 was considered statistically significant.

[1] = IQ group (oral IQ 50 mg/kg), labelled substance = analyte, mean of 5 rats
[2] = IQ group: oral IQ 50 mg/kg, mean ± SD, n = 5
[3] = QG group (oral QG 50 mg/kg), labelled substance = analyte, mean of 5 rats
[4] = QG group: oral QG 50 mg/kg, mean ± SD, n = 5
[5] = Qr group (oral Qr 50 mg/kg), labelled substance = analyte, mean of 5 rats
[6] = Qr group: oral Qr 50 mg/kg, mean ± SD, n = 5

For O=c1c(O)c(-c2ccc(O)c(O)c2)oc2cc(O)cc(O)c12 [Qr, Quercetin], which concentration at 5 min (oral, QG group (oral QG 50 mg/kg), 5 min, individual rats NO. 1-5, read-out: Plasma concentrations) is on record?
Its concentration at 5 min is 0 ng/mL.

And the concentration at 15 min (oral, QG group (oral QG 50 mg/kg), 15 min, individual rats NO. 1-5, read-out: Plasma concentrations)?
The concentration at 15 min was 0 ng/mL.

And the concentration at 30 min (oral, QG group (oral QG 50 mg/kg), 30 min, individual rats NO. 1-5, read-out: Plasma concentrations)?
Its concentration at 30 min is 0 ng/mL.

And the concentration at 240 min (oral, Qr group (oral Qr 50 mg/kg), 240 min, individual rats NO. 1-5, read-out: Plasma concentrations)?
Its concentration at 240 min is 2590 ng/mL.

And the Tmax (IQ group (oral IQ 50 mg/kg), labelled substance = analyte, individual rats No1-No5)?
Its Tmax is 0.5 h.

What about the AUC(0-t) (IQ group (oral IQ 50 mg/kg), labelled substance = analyte, mean of 5 rats, read-out: AUC(0-t) (converted)) of the same compound?
Its AUC(0-t) is 36900 ng·h/mL.

What about the CL/F [1] of the same compound?
Its CL/F is 24 mL/min/kg.

And the Cmax [1]?
Its Cmax is 6600 ng/mL.

What about the MRT last (IQ group (oral IQ 50 mg/kg), labelled substance = analyte, mean of 5 rats, read-out: MRT(0-t) (converted)) of the same compound?
Its MRT last is 7.04 h.

And the Tmax [1]?
Its Tmax is 0.7 h.

What about the half-life [1] of the same compound?
The half-life was 6.31 h.

And the AUC(0-t) (IQ group: oral IQ 50 mg/kg, mean ± SD, n = 5, read-out: AUC0−t (converted))?
The AUC(0-t) was 36900 ng·h/mL.

What about the Cmax [2] of the same compound?
The Cmax was 6600 ± 2670 ng/mL.

What about the MRT last (IQ group: oral IQ 50 mg/kg, mean ± SD, n = 5, read-out: MRT0−t (converted)) of the same compound?
Its MRT last is 7.04 h.

And the Tmax [2]?
The Tmax was 0.7 h.

And the half-life [2]?
The half-life was 6.31 ± 5.65 h.

What about the Tmax (QG group (oral QG 50 mg/kg), labelled substance = analyte, individual rats No1-No5) of the same compound?
Its Tmax is 4 h.

And the AUC(0-t) (QG group (oral QG 50 mg/kg), labelled substance = analyte, mean of 5 rats, read-out: AUC(0-t) (converted))?
Its AUC(0-t) is 58400 ng·h/mL.

And the CL/F [3]?
The CL/F was 14 mL/min/kg.

What about the Cmax [3] of the same compound?
The Cmax was 5170 ng/mL.

What about the Tmax [3] of the same compound?
The Tmax was 6 h.

And the half-life [3]?
The half-life was 6.09 h.

What about the AUC(0-t) (QG group: oral QG 50 mg/kg, mean ± SD, n = 5, read-out: AUC0−t (converted)) of the same compound?
Its AUC(0-t) is 58400 ng·h/mL.

What about the Cmax [4] of the same compound?
The Cmax was 5170 ± 1850 ng/mL.

What about the Tmax [4] of the same compound?
The Tmax was 6 h.

What about the half-life [4] of the same compound?
The half-life was 6.09 ± 2.53 h.

And the MRT last (Qr group (oral Qr 50 mg/kg), labelled substance = analyte, individual rats No1-No5, read-out: MRT(0-t) (converted))?
The MRT last was 6.33 h.

And the half-life (Qr group (oral Qr 50 mg/kg), labelled substance = analyte, individual rats No1-No5)?
The half-life was 7.67 h.

And the AUC(0-t) (Qr group (oral Qr 50 mg/kg), labelled substance = analyte, mean of 5 rats, read-out: AUC(0-t) (converted))?
Its AUC(0-t) is 43200 ng·h/mL.

And the CL/F [5]?
The CL/F was 20 mL/min/kg.

And the Cmax [5]?
The Cmax was 7470 ng/mL.

What about the Tmax [5] of the same compound?
Its Tmax is 0.9 h.

And the half-life [5]?
The half-life was 7.29 h.

What about the AUC(0-t) (Qr group: oral Qr 50 mg/kg, mean ± SD, n = 5, read-out: AUC0−t (converted)) of the same compound?
Its AUC(0-t) is 43200 ng·h/mL.

What about the Cmax [6] of the same compound?
Its Cmax is 7470 ± 2630 ng/mL.

And the Tmax [6]?
The Tmax was 0.9 h.

What about the half-life [6] of the same compound?
The half-life was 7.29 ± 0.905 h.
